Data on 34 compounds can be found in PMC11855827, “High-Throughput Screening of Five Compound Libraries for Anthelmintic Activity and Toxicity Leads to the Discovery of Two Flavonoid Compounds” (International Journal of Molecular Sciences, 2025).

Values joined by “and” are separate entries in the source; they are usually repeats but may differ in a detail not shown here. Identical values can stand only once.

This assay concerns C. elegans. The following applies: Table S2, C. elegans SS assay, 110 μM, averages of 4 data points.

For `NC1CCN(c2nc3c(cc2F)c(=O)c(C(=O)O)cn3-c2ccc(F)cc2F)C1` (stereo not drawn) [Tosufloxacin (tosylate hydrate)], the “Percentage of motility inhibition 0 h” value came to 44% and the “Percentage of motility inhibition 24 h” value stood at 36%.

With `O=C(/C=C/c1ccc(O)cc1)OC[C@H]1O[C@@H](Oc2c(-c3ccc(O)cc3)oc3cc(O)cc(O)c3c2=O)[C@H](O)[C@@H](O)[C@@H]1O` [Tribuloside], the “Percentage of motility inhibition 0 h” value was 13% and the “Percentage of motility inhibition 24 h” value turned out to be 16%.

For the compound `Cc1c(O)c(O)cc2c1CC=C1[C@@]2(C)CC[C@@]2(C)[C@@H]3C[C@](C)(C(=O)O)CC[C@]3(C)CC[C@]12C` [Triptohypol C], the “Percentage of motility inhibition 0 h” value turned out to be 0% and the “Percentage of motility inhibition 24 h” value is recorded as 43%.

With `CC(C)[C@]12O[C@H]1[C@@H]1O[C@@]13[C@@]1(C)CCC4=C(COC4=O)[C@@H]1C[C@@H]1O[C@@]13C2=O` [Triptonide], the “Percentage of motility inhibition 0 h” value was 7% and the “Percentage of motility inhibition 24 h” value amounted to 13%.

On to `C[C@@H]1O[C@@H](OC[C@H]2O[C@@H](Oc3c(-c4ccc(OCCO)c(OCCO)c4)oc4cc(OCCO)cc(O)c4c3=O)[C@H](O)[C@@H](O)[C@@H]2O)[C@H](O)[C@H](O)[C@H]1O` [Troxerutin], for which the “Percentage of motility inhibition 0 h” value is 0% and 3%; the “Percentage of motility inhibition 24 h” value was 0% and 6%.

Regarding `CC(=O)O[C@@H]1CC[C@]2(C)C3=C(CC[C@H]2C1(C)C)[C@]1(C)CC[C@H]([C@@H](CCC=C(C)C)C(=O)O)[C@@]1(C)CC3` [Tsugaric acid A], the “Percentage of motility inhibition 0 h” value is 12% and the “Percentage of motility inhibition 24 h” value came out at 12%.

As to `C[C@@H]1O[C@H]2O[C@H]3[C@@H](OC[C@H](O)[C@@H]3O)OC(=O)[C@]34CCC(C)(C)C[C@H]3C3=CC[C@@H]5[C@@]6(C)C[C@H](O)[C@H](O[C@@H]7O[C@H](CO)[C@@H](O)[C@H](O)[C@H]7O[C@@H]7O[C@@H](COC(=O)C[C@](C)(O)CC(=O)O[C@@H]1[C@@H](O[C@@H]1OC[C@@H](O)[C@H](O)[C@H]1O)[C@H]2O)[C@H](O)[C@@H](O)[C@@H]7O)[C@@](C)(CO)[C@@H]6CC[C@@]5(C)[C@]3(C)C[C@H]4O` [Tubeimoside III], the “Percentage of motility inhibition 0 h” value stood at 0% and the “Percentage of motility inhibition 24 h” value was determined as 36%.

For `CC1OC2OC3C(OCC(O)C3O)OC(=O)C34CCC(C)(C)CC3C3=CCC5C6(C)CC(O)C(OC7OC(CO)C(O)C(O)C7OC7OCC(OC(=O)CC(C)(O)CC(=O)OC1C(OC1OCC(O)C(O)C1O)C2O)C(O)C7O)C(C)(CO)C6CCC5(C)C3(C)CC4O` (stereo not drawn) [Tubeimoside II], the “Percentage of motility inhibition 0 h” value was found to be 0% and the “Percentage of motility inhibition 24 h” value worked out at 2%.

Turning to `CCCNC[C@]1(O)[C@H](C)O[C@@H](O[C@H]2[C@H](C)[C@@H](O[C@@H]3O[C@H](C)C[C@H](N(C)C)[C@H]3O)[C@](C)(O)C[C@@H](C)CN[C@H](C)[C@@H](O)[C@](C)(O)[C@@H](CC)OC(=O)[C@@H]2C)C[C@@]1(C)OC` [Tulathromycin A], the “Percentage of motility inhibition 0 h” value is given as 20% and the “Percentage of motility inhibition 24 h” value amounted to 9%.

Take `C=C1[C@H](OC(=O)/C=C(\C)CC)C[C@@H](C(C)C)[C@@H]2[C@@H]([C@@H](C)OC(C)=O)C(=O)C[C@@H]12` [Tussilagone]: the “Percentage of motility inhibition 0 h” value was 12% and the “Percentage of motility inhibition 24 h” value was found to be 31%.

As for `CC[C@H]1OC(=O)C[C@@H](O)[C@H](C)[C@@H](O[C@@H]2O[C@H](C)[C@@H](O[C@H]3C[C@@](C)(O)[C@@H](O)[C@H](C)O3)[C@H](N(C)C)[C@H]2O)[C@@H](CC=O)C[C@@H](C)C(=O)/C=C/C(C)=C/[C@@H]1CO[C@@H]1O[C@H](C)[C@@H](O)[C@@H](OC)[C@H]1OC.O=C(O)C(O)C(O)C(=O)O` [Tylosin (tartr ate)], the “Percentage of motility inhibition 0 h” value was 0% and the “Percentage of motility inhibition 24 h” value is given as 1%.

For the compound `COc1cc(-c2oc3cc(O)cc(O)c3c(=O)c2O[C@@H]2O[C@H](CO[C@@H]3O[C@@H](C)[C@H](O)[C@@H](O)[C@H]3O)[C@@H](O)[C@H](O)[C@H]2O[C@@H]2O[C@@H](C)[C@H](O)[C@@H](O)[C@H]2O)ccc1O` [Typhaneoside], the “Percentage of motility inhibition 0 h” value was determined as 26% and the “Percentage of motility inhibition 24 h” value is listed as 15%.

For `CC1=CC(=O)C2(C(C)C)CC12` (stereo not drawn) [Umbellulone], the “Percentage of motility inhibition 0 h” value was found to be 0% and the “Percentage of motility inhibition 24 h” value came to 1%.

In the case of `NC(N)=O` [Urea], the “Percentage of motility inhibition 0 h” value came to 10% and the “Percentage of motility inhibition 24 h” value was found to be 13%.

On to `CC(=O)O[C@H]1CC[C@]2(C)[C@H]3CC=C4[C@@H]5[C@@H](C)[C@H](C)CC[C@]5(C(=O)O)CC[C@@]4(C)[C@]3(C)CC[C@H]2C1(C)C` [Ursolic acid acetate], for which the “Percentage of motility inhibition 0 h” value amounted to 24% and the “Percentage of motility inhibition 24 h” value is given as 18%.

As to `C/C=C1\C[C@@H](C)[C@](O)(CO)C(=O)OCC2=CC[N+]3([O-])CC[C@@H](OC1=O)[C@@H]23` (stereo partly drawn) [Usaramine N‐oxide], the “Percentage of motility inhibition 0 h” value was 22% and 12%.

Regarding `C/C=C1\C[C@@H](C)[C@](O)(CO)C(=O)OCC2=CCN3CC[C@@H](OC1=O)[C@@H]23` [Usaramine], the “Percentage of motility inhibition 0 h” value worked out at 31% and the “Percentage of motility inhibition 24 h” value is given as 21%.

On to `O=c1cc(-c2ccc(O[C@@H]3O[C@H](CO)[C@@H](O)[C@H](O)[C@H]3O)cc2)oc2cc(O)c([C@@H]3O[C@H](CO)[C@@H](O)[C@H](O)[C@H]3O[C@@H]3OC[C@H](O)[C@H](O)[C@H]3O)c(O)c12` [Vaccarin], for which the “Percentage of motility inhibition 0 h” value is 0% and the “Percentage of motility inhibition 24 h” value is recorded as 6%.

With `CC(C)[C@H](N)C(=O)OCCOCn1cnc2c(=O)nc(N)[nH]c21.Cl` [Valacyclovir (hydrochloride)], the “Percentage of motility inhibition 0 h” value came out at 38% and the “Percentage of motility inhibition 24 h” value came out at 9%.

`C=C(C)[C@@H]1CCC2=CCC[C@@H](C)[C@]2(C)C1` [Valencene]: the “Percentage of motility inhibition 0 h” value is 3% and the “Percentage of motility inhibition 24 h” value was determined as 4%.

As for `CC(C)[C@H](N)C(=O)OCC(CO)OCn1cnc2c(=O)nc(N)[nH]c21.Cl` (stereo partly drawn) [Valganciclovir (hydrochloride)], the “Percentage of motility inhibition 0 h” value came to 9% and the “Percentage of motility inhibition 24 h” value stood at 0%.

Regarding `COC(=O)CC(NC(=O)[C@@H](NC(=O)OC(C)C)C(C)C)c1ccc(Cl)cc1` (stereo partly drawn) [Valifenalate], the “Percentage of motility inhibition 0 h” value was found to be 26% and the “Percentage of motility inhibition 24 h” value was determined as 3%.

`C=C[C@]1(C)C[C@@H](OC(=O)CSC(C)(C)CNC(=O)[C@H](N)C(C)C)[C@]2(C)[C@H](C)CC[C@]3(CCC(=O)[C@H]32)[C@@H](C)[C@@H]1O.Cl` [Valnemulin (Hydrochloride)]: the “Percentage of motility inhibition 0 h” value came to 29% and the “Percentage of motility inhibition 24 h” value is on record as 12%.

With `CN[C@H](CC(C)C)C(=O)N[C@H]1C(=O)N[C@@H](CC(N)=O)C(=O)N[C@H]2C(=O)N[C@H]3C(=O)N[C@H](C(=O)N[C@H](C(=O)O)c4cc(O)cc(O)c4-c4cc3ccc4O)[C@H](O)c3ccc(c(Cl)c3)Oc3cc2cc(c3O[C@@H]2O[C@H](CO)[C@@H](O)[C@H](O)[C@H]2O[C@H]2C[C@](C)(N)[C@H](O)[C@H](C)O2)Oc2ccc(cc2Cl)[C@H]1O.Cl` [Vancomycin (hydrochloride)], the “Percentage of motility inhibition 0 h” value came to 15% and the “Percentage of motility inhibition 24 h” value was found to be 0%.

On to `Cl.O[C@H]1CCN2Cc3ccccc3N=C12` [Vasicine (hydrochloride)], for which the “Percentage of motility inhibition 0 h” value came out at 0% and the “Percentage of motility inhibition 24 h” value came to 2%.

In the case of `O=c1c2ccccc2nc2n1CC[C@@H]2O` [Vasicinone], the “Percentage of motility inhibition 0 h” value amounted to 0% and the “Percentage of motility inhibition 24 h” value worked out at 0%.

With `COC(=O)C1=CO[C@@H](O[C@@H]2O[C@H](CO)[C@@H](O)[C@H](O)[C@H]2O)[C@H]2[C@@H]1C(=O)C[C@@H]2C` [Verbenalin], the “Percentage of motility inhibition 0 h” value is 60% and the “Percentage of motility inhibition 24 h” value was 44%.

Regarding `O=c1cc(-c2ccc(O)cc2)oc2c([C@@H]3O[C@H](CO)[C@@H](O)[C@H](O)[C@H]3O)c(O)c([C@@H]3O[C@H](CO)[C@@H](O)[C@H](O)[C@H]3O)c(O)c12` [Vicenin 2], the “Percentage of motility inhibition 0 h” value is on record as 0% and the “Percentage of motility inhibition 24 h” value came out at 3%.

As for `O=c1cc(-c2ccc(O)cc2)oc2c([C@@H]3OC[C@@H](O)[C@H](O)[C@H]3O)c(O)c([C@@H]3O[C@H](CO)[C@@H](O)[C@H](O)[C@H]3O)c(O)c12` [Vicenin 3], the “Percentage of motility inhibition 0 h” value was 15% and the “Percentage of motility inhibition 24 h” value is 3%.

For `CC[C@]1(O)C[C@@H]2CN(CCc3c([nH]c4ccccc34)[C@@](C(=O)OC)(c3cc4c(cc3OC)N(C)[C@H]3[C@@](O)(C(=O)OC)[C@H](OC(C)=O)[C@]5(CC)C=CCN6CC[C@]43[C@@H]65)C2)C1.O=S(=O)(O)O` [Vinblastine (sulfate)], the “Percentage of motility inhibition 0 h” value is 0% and 8%; the “Percentage of motility inhibition 24 h” value is 0% and 1%.

Take `CC[C@]1(O)C[C@H]2CN(CCc3c([nH]c4ccccc34)[C@@](C(=O)OC)(c3cc4c(cc3OC)N(C=O)[C@H]3[C@@](O)(C(=O)OC)[C@H](OC(C)=O)[C@]5(CC)C=CCN6CC[C@]43[C@@H]65)C2)C1.O=S(=O)(O)O` [Vincristine (sulfate)]: the “Percentage of motility inhibition 0 h” value is listed as 0%; the “Percentage of motility inhibition 24 h” value is 0% and 7%.

As to `CCC1=C[C@@H]2CN(C1)Cc1c([nH]c3ccccc13)[C@@](C(=O)OC)(c1cc3c(cc1OC)N(C)[C@H]1[C@@](O)(C(=O)OC)[C@H](OC(C)=O)[C@]4(CC)C=CCN5CC[C@]31[C@@H]54)C2.O=C(O)C(O)C(O)C(=O)O.O=C(O)C(O)C(O)C(=O)O` [Vinorelbine (ditartrate)], the “Percentage of motility inhibition 0 h” value came out at 0%.

As to `C[C@@H]1O[C@@H](c2c(O)c([C@@H]3O[C@H](CO)[C@@H](O)[C@H](O)[C@H]3O)c(O)c3c(=O)cc(-c4ccc(O)cc4)oc23)[C@H](O)[C@H](O)[C@H]1O` [Violanthin], the “Percentage of motility inhibition 0 h” value is 0% and the “Percentage of motility inhibition 24 h” value is reported as 19%.

In the case of `O=c1[nH]c2ccccc2c(-c2cccc(O)c2)c1O` [Viridicatol], the “Percentage of motility inhibition 0 h” value came to 0% and the “Percentage of motility inhibition 24 h” value was determined as 0%.
